Results as given in publication PMC2193345 (The Journal of Experimental Medicine, 2001).

Legend:
Type in all cases: cell-based
DP [1] = target: T1, DP (Homo sapiens, UniProt Q13258); experiment: 3H-PGD2 competition binding, K562/DP cells
T1 sequence (Q13258 1-359): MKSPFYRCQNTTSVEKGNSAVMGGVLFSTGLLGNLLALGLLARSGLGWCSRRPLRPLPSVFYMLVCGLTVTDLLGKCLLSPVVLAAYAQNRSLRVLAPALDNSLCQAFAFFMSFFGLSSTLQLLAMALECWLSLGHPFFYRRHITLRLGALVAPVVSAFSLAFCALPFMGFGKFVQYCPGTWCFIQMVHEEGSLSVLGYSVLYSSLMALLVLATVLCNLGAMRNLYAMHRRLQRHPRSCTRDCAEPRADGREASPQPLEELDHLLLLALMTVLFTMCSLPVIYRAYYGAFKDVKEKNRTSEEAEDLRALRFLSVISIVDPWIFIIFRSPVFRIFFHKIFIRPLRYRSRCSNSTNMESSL

CRTH2 [2] = target: T2, CRTH2 (Homo sapiens, UniProt Q9Y5Y4); experiment: 3H-PGD2 competition binding, K562/CRTH2 cells
T2 sequence (Q9Y5Y4 1-395): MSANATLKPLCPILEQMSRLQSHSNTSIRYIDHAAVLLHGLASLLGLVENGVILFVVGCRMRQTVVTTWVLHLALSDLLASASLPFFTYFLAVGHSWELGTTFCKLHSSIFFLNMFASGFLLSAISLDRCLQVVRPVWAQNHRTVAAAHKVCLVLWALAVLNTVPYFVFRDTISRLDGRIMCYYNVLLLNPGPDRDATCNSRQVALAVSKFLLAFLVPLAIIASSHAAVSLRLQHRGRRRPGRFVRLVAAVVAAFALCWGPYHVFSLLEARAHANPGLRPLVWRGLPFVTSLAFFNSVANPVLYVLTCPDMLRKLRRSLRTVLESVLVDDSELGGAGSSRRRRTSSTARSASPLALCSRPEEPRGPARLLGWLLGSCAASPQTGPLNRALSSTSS

DP [3] = target: T1, DP; experiment: 3H-PGD2 saturation binding
CRTH2 [4] = target: T2, CRTH2; experiment: 3H-PGD2 saturation binding

| Structure (SMILES) | Ki (DP [1]) [µM] | Ki (CRTH2 [2]) [µM] | Kd (DP [3]) [µM] | Kd (CRTH2 [4]) [µM] |
| --- | --- | --- | --- | --- |
| CCCCC[C@H](O)/C=C/[C@@H]1[C@@H](C/C=C\CCCC(=O)O)[C@@H](O)C[C@@H]1O [11β-PGF2α] | 1.2 | 20 | – | – |
| CCCCC/C=C/C=C1/C(=O)C=C[C@@H]1C/C=C\CCCC(=O)O [15-deoxy-Δ^12,14-PGJ2] | > 30 | 2.3 | – | – |
| O=C(O)CCCCCC[C@H]1C(=O)NC(=O)N1CC[C@@H](O)C1CCCCC1 [BW245C] | 0.05 ± 0.02 | > 100 | – | – |
| CCCCCC(=O)CC[C@H]1C(=O)C[C@H](O)[C@@H]1C/C=C\CCCC(=O)O [DK-PGD2, 13,14-dihydro-15-keto-PGD2] | > 30 | 0.16 ± 0.035 | – | – |
| CCCCC/C=C\C[C@@H](O)/C=C/C=C/C=C\[C@@H](O)CCCC(=O)O [LTB4] | > 30 | > 30 | – | – |
| CCCCC[C@H](O)/C=C/C=C\C=C\C=C\[C@@H](O)[C@@H](O)CCCC(=O)O [LXA4] | > 30 | > 30 | – | – |
| CCCCC[C@H](O)/C=C/[C@H]1C=CC(=O)[C@@H]1C/C=C\CCCC(=O)O [PGA2] | > 30 | > 30 | – | – |
| CCCCC[C@H](O)/C=C/[C@H]1C(=O)C[C@H](O)[C@@H]1C/C=C\CCCC(=O)OC [PGD2 methyl ester] | 0.27 ± 0.046 | 0.46 ± 0.12 | – | – |
| CCCCC[C@H](O)/C=C/[C@H]1C(=O)C[C@H](O)[C@@H]1C/C=C\CCCC(=O)O [PGD2] | 0.045 ± 0.017 | 0.061 ± 0.023 | 0.0377 | 0.0313 |
| CCCCC[C@H](O)/C=C/[C@H]1[C@H](O)CC(=O)[C@@H]1C/C=C\CCCC(=O)O [PGE2] | 2.3 | 3.1 | – | – |
| CCCCC[C@H](O)/C=C/[C@@H]1[C@@H](C/C=C\CCCC(=O)O)[C@@H](O)C[C@H]1O [PGF2α] | > 30 | 2 | – | – |
| CCCCC[C@H](O)/C=C/[C@H]1C(=O)C=C[C@@H]1C/C=C\CCCC(=O)O [PGJ2] | 0.064 ± 0.013 | 0.46 ± 0.16 | – | – |
| CCCCC[C@H](O)/C=C/[C@@H]1[C@@H](C/C=C\CCCC(=O)O)[C@H]2CO[C@@H]1C2 [U46619] | > 30 | > 30 | – | – |
| CCCCC[C@H](O)C/C=C1/C(=O)C=C[C@@H]1C/C=C\CCCC(=O)O [Δ^12-PGJ2] | 5.2 | 7.1 | – | – |
